Results: patent publication US10280159B2 (AbbVie Deutschland GmbH & Co. KG, priority 2015, dated 2019)

Assays:
Type in all cases: cell-based
[1] = biological target: T1, human S1PR5 (Homo sapiens, UniProt Q9H228); experiment: Intracellular Ca2+ release (FLIPR) agonist potency, S1P5; conditions: recombinant CHO-K1 cells expressing human S1PR5, aequorin, Gq/i5; Calcium 5 FLIPR; read-out: S1P5 EC50 range
T1 construct: host or cells: CHO-K1
Procedure, shortened: (§1)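 CHO-K1 cells recombinantly expressing the human S1P receptor plus aequorin and Gq/i5 were grown in F-12 Ham with 10% FBS. Agonist-induced intracellular Ca2+ release was read on a FLIPR Tetra. EC50 came from nonlinear fits of raw fluorescence normalized to the phospho-fingolimod reference curve.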

[2] = biological target: T2, human S1PR1 (Homo sapiens, UniProt P21453); experiment: Intracellular Ca2+ release (FLIPR) agonist potency, S1P1; conditions: recombinant CHO-K1 cells expressing human S1PR1, aequorin, Gq/i5; Calcium 5 FLIPR; read-out: S1P1 EC50
T2 construct: host or cells: CHO-K1
T2 sequence (P21453 whole entry): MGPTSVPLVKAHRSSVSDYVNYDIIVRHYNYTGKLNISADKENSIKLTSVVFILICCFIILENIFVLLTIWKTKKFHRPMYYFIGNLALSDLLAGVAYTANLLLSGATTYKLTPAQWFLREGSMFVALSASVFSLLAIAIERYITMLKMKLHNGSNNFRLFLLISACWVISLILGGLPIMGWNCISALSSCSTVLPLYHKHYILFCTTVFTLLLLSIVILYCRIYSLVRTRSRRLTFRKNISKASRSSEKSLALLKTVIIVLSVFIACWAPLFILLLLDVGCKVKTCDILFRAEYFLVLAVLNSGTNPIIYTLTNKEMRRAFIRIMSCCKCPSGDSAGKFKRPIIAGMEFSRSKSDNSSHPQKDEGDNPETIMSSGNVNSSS
Procedure, shortened: as §1

[3] = biological target: T3, human S1PR4 (Homo sapiens, UniProt O95977); experiment: Intracellular Ca2+ release (FLIPR) agonist potency, S1P4; conditions: recombinant CHO-K1 cells expressing human S1PR4, aequorin, Gq/i5; Calcium 5 FLIPR; read-out: S1P4 EC50
T3 construct: host or cells: CHO-K1
T3 sequence (O95977 1-384): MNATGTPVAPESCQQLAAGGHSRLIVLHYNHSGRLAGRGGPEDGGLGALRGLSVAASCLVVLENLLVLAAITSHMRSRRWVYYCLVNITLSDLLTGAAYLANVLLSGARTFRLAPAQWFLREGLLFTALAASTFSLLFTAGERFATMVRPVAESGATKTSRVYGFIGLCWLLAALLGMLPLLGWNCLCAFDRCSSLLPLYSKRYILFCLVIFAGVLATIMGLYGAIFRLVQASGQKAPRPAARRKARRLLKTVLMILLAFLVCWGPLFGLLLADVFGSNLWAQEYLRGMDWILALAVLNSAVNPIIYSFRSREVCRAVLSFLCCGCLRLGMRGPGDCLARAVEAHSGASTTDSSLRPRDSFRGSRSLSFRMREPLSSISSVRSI
Procedure, shortened: as §1

T1 sequence (Q9H228 whole entry): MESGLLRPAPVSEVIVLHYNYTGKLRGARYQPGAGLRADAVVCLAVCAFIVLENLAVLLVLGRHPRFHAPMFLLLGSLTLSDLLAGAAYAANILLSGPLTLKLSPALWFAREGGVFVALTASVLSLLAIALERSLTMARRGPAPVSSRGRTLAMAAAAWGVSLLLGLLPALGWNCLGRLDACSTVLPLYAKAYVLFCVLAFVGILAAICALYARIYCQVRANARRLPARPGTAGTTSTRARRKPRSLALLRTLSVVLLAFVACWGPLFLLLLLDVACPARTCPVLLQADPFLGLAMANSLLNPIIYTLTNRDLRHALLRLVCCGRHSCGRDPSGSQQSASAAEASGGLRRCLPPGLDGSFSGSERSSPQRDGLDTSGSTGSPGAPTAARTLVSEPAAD

| SMILES | EC50 [1] | EC50 [2] | EC50 [3] |
| --- | --- | --- | --- |
| CCCC1(C(=O)O)CN([C@@H]2COc3cc(OCc4c(Cl)cccc4Cl)ccc3C2)C1 [Compound 141, (S)-1-(7-((2,6-dichlorobenzyl)oxy)chroman-3-yl)-3-propylazetidine-3-carboxylic acid] | 1 to 10 µM | > 1 µM | > 1 µM |
| CCc1cccc(Cl)c1COc1ccc2c(c1)CCC(OCC(=O)O)C2 (stereo not drawn) [Compound 142] | < 0.01 µM | > 1 µM | > 1 µM |
| O=C(O)COC1CCc2cc(OCc3c(Cl)cccc3C3CC3)ccc2C1 (stereo not drawn) [Compound 143, 2-((6-((2-chloro-6-cyclopropylbenzyl)oxy)-1,2,3,4-tetrahydronaphthalen-2-yl)oxy)acetic acid] | < 0.01 µM | > 1 µM | > 1 µM |
| CCCc1ccc(COc2ccc3c(c2)OCC(N2CC(C(=O)O)C2)C3)c(OC)c1 (stereo not drawn) [Compound 148, 1-(7-((2-methoxy-4-propylbenzyl)oxy)chroman-3-yl)azetidine-3-carboxylic acid] | 1 to 10 µM | > 1 µM | > 1 µM |
| O=C(O)COC1CCc2cc(OCc3cc(C(F)(F)F)ccc3Cl)ccc2C1 (stereo not drawn) [Compound 151, 2-[6-[[2-chloro-5-(trifluoromethyl)phenyl]methoxy]tetralin-2-yl]oxyacetic acid] | 1 to 10 µM | > 1 µM | > 1 µM |
| COc1cccc(COc2ccc3c(c2)CCC(OCC(=O)O)C3)c1 (stereo not drawn) [Compound 154, 2-[6-[(3-methoxyphenyl)methoxy]tetralin-2-yl]oxyacetic acid] | 1 to 10 µM | > 1 µM | > 1 µM |
| Cc1cc(C)cc(COc2ccc3c(c2)CCC(OCC(=O)O)C3)c1 (stereo not drawn) [Compound 156, 2-[6-[(3,5-dimethylphenyl)methoxy]tetralin-2-yl]oxyacetic acid] | 1 to 10 µM | > 1 µM | > 1 µM |
| O=C(O)COC1CCc2cc(OCc3ccc(Cl)cc3Cl)ccc2C1 (stereo not drawn) [Compound 162, 2-[6-[(2,4-dichlorophenyl)methoxy]tetralin-2-yl]oxyacetic acid] | 1 to 10 µM | > 1 µM | > 1 µM |
| COc1ccc(COc2ccc3c(c2)CCC(OCC(=O)O)C3)cc1 (stereo not drawn) [Compound 165, 2-[6-[(4-methoxyphenyl)methoxy]tetralin-2-yl]oxyacetic acid] | 1 to 10 µM | > 1 µM | > 1 µM |
| COc1ccc(F)cc1COc1ccc2c(c1)CCC(OCC(=O)O)C2 (stereo not drawn) [Compound 166, 2-[6-[(5-fluoro-2-methoxy-phenyl)methoxy]tetralin-2-yl]oxyacetic acid] | 0.1 to 1 µM | > 1 µM | > 1 µM |
| COc1ccccc1COc1ccc2c(c1)CCC(OCC(=O)O)C2 (stereo not drawn) [Compound 170, 2-[6-[(2-methoxyphenyl)methoxy]tetralin-2-yl]oxyacetic acid] | 1 to 10 µM | > 1 µM | > 1 µM |
| COc1ccc(Cl)cc1COc1ccc2c(c1)CCC(OCC(=O)O)C2 (stereo not drawn) [Compound 176, 2-[6-[(5-chloro-2-methoxy-phenyl)methoxy]tetralin-2-yl]oxyacetic acid] | 1 to 10 µM | > 1 µM | > 1 µM |
| Cc1ccccc1COc1ccc2c(c1)CCC(OCCC(=O)O)C2 (stereo not drawn) [Compound 179, 3-[6-(o-tolylmethoxy)tetralin-2-yl]oxypropanoic acid] | 1 to 10 µM | > 1 µM | > 1 µM |
| O=C(O)CCOC1CCc2cc(OCc3cccc(F)c3)ccc2C1 (stereo not drawn) [Compound 180, 3-[6-[(3-fluorophenyl)methoxy]tetralin-2-yl]oxypropanoic acid] | 1 to 10 µM | > 1 µM | > 1 µM |
| O=C(O)CCOC1CCc2cc(OCc3ccc(Cl)c(Cl)c3)ccc2C1 (stereo not drawn) [Compound 181, 3-[6-[(3,4-dichlorophenyl)methoxy]tetralin-2-yl]oxypropanoic acid] | 1 to 10 µM | > 1 µM | > 1 µM |
| CSc1ccc(COc2ccc3c(c2)CCC(OCCC(=O)O)C3)cc1 (stereo not drawn) [Compound 182, 3-[6-[(4-methylsulfanylphenyl)methoxy]tetralin-2-yl]oxypropanoic acid] | 1 to 10 µM | > 1 µM | > 1 µM |
| O=C(O)CCOC1CCc2cc(OCc3ccc(C(F)(F)F)cc3)ccc2C1 (stereo not drawn) [Compound 183, 3-[6-[[4-(trifluoromethyl)phenyl]methoxy]tetralin-2-yl]oxypropanoic acid] | 1 to 10 µM | > 1 µM | > 1 µM |
| O=C(O)CCOC1CCc2cc(OCc3cccc(OC(F)(F)F)c3)ccc2C1 (stereo not drawn) [Compound 184, 3-[6-[[3-(trifluoromethoxy)phenyl]methoxy]tetralin-2-yl]oxypropanoic acid] | 1 to 10 µM | > 1 µM | > 1 µM |
| O=C(O)CCOC1CCc2cc(OCc3ccc(OC(F)(F)F)cc3)ccc2C1 (stereo not drawn) [Compound 185, 3-[6-[[4-(trifluoromethoxy)phenyl]methoxy]tetralin-2-yl]oxypropanoic acid] | 1 to 10 µM | > 1 µM | > 1 µM |
| O=C(O)CCOC1CCc2cc(OCc3cccc(F)c3F)ccc2C1 (stereo not drawn) [Compound 186, 3-[6-[(2,3-difluorophenyl)methoxy]tetralin-2-yl]oxypropanoic acid] | 1 to 10 µM | > 1 µM | > 1 µM |
| O=C(O)CCOC1CCc2cc(OCc3ccccc3Cl)ccc2C1 (stereo not drawn) [Compound 188, 3-[6-[(2-chlorophenyl)methoxy]tetralin-2-yl]oxypropanoic acid] | 1 to 10 µM | > 1 µM | > 1 µM |

Other lines, results leading:

| EC50 [1] | EC50 [2] | EC50 [3] | SMILES |
| --- | --- | --- | --- |
| 1 to 10 µM | > 1 µM | > 1 µM | Cc1ccc(F)c(COc2ccc3c(c2)CCC(OCC(=O)O)C3)c1F (stereo not drawn) [Compound 149, 2-[6-[(2,6-difluoro-3-methyl-phenyl)methoxy]tetralin-2-yl]oxyacetic acid] |
| 1 to 10 µM | > 1 µM | > 1 µM | Cc1ccc(Cl)c(COc2ccc3c(c2)CCC(OCC(=O)O)C3)c1F (stereo not drawn) [Compound 150, 2-[6-[(6-chloro-2-fluoro-3-methyl-phenyl)methoxy]tetralin-2-yl]oxyacetic acid] |
| 1 to 10 µM | > 1 µM | > 1 µM | Cc1ccc(F)cc1COc1ccc2c(c1)CCC(OCC(=O)O)C2 (stereo not drawn) [Compound 155, 2-[6-[(5-fluoro-2-methyl-phenyl)methoxy]tetralin-2-yl]oxyacetic acid] |
| 1 to 10 µM | > 1 µM | > 1 µM | COc1cccc(F)c1COc1ccc2c(c1)CCC(OCC(=O)O)C2 (stereo not drawn) [Compound 157, 2-[6-[(2-fluoro-6-methoxy-phenyl)methoxy]tetralin-2-yl]oxyacetic acid] |
| 1 to 10 µM | > 1 µM | > 1 µM | O=C(O)COC1CCc2cc(OCc3c(F)cccc3C(F)(F)F)ccc2C1 (stereo not drawn) [Compound 158, 2-[6-[[2-fluoro-6-(trifluoromethyl)phenyl]methoxy]tetralin-2-yl]oxyacetic acid] |
| 1 to 10 µM | > 1 µM | > 1 µM | O=C(O)COC1CCc2cc(OCc3c(F)cccc3F)ccc2C1 (stereo not drawn) [Compound 159, 2-[6-[(2,6-difluorophenyl)methoxy]tetralin-2-yl]oxyacetic acid] |
| 0.1 to 1 µM | > 1 µM | > 1 µM | Cc1ccc(F)c(COc2ccc3c(c2)CCC(OCC(=O)O)C3)c1 (stereo not drawn) [Compound 160, 2-[6-[(2-fluoro-5-methyl-phenyl)methoxy]tetralin-2-yl]oxyacetic acid] |
| 0.1 to 1 µM | > 1 µM | > 1 µM | O=C(O)COC1CCc2cc(OCc3cc(F)ccc3F)ccc2C1 (stereo not drawn) [Compound 163, 2-[6-[(2,5-difluorophenyl)methoxy]tetralin-2-yl]oxyacetic acid] |
| 1 to 10 µM | > 1 µM | > 1 µM | O=C(O)COC1CCc2cc(OCc3cc(Cl)ccc3Cl)ccc2C1 (stereo not drawn) [Compound 164, 2-[6-[(2,5-dichlorophenyl)methoxy]tetralin-2-yl]oxyacetic acid] |
| 0.1 to 1 µM | > 1 µM | > 1 µM | O=C(O)COC1CCc2cc(OCc3c(F)cccc3Cl)ccc2C1 (stereo not drawn) [Compound 169, 2-[6-[(2-chloro-6-fluoro-phenyl)methoxy]tetralin-2-yl]oxyacetic acid] |
| 1 to 10 µM | > 1 µM | > 1 µM | O=C(O)COC1CCc2cc(OCc3cc(F)ccc3Cl)ccc2C1 (stereo not drawn) [Compound 171, 2-[6-[(2-chloro-5-fluoro-phenyl)methoxy]tetralin-2-yl]oxyacetic acid] |
| 1 to 10 µM | > 1 µM | > 1 µM | O=C(O)COC1CCc2cc(OCc3cc(C(F)(F)F)ccc3F)ccc2C1 (stereo not drawn) [Compound 172, 2-[6-[[2-fluoro-5-(trifluoromethyl)phenyl]methoxy]tetralin-2-yl]oxyacetic acid] |
| 1 to 10 µM | > 1 µM | > 1 µM | O=C(O)COC1CCc2cc(OCc3cc(Cl)ccc3F)ccc2C1 (stereo not drawn) [Compound 174, 2-[6-[(5-chloro-2-fluoro-phenyl)methoxy]tetralin-2-yl]oxyacetic acid] |
